This note sets out measurements from patent US10351530B2, “Arylcyclohexyl pyrazoles as NRF2 regulators” (GlaxoSmithKline Intellectual Property Development Limited, priority 2015, dated 2019).

The subject of test [1] is NQO1 specific enzyme activity in BEAS-2B cells. Put plainly: BEAS-2B NQO1 MTT Assay. The class given is cell-based. The settings on record: Homo sapiens, BEAS-2B, 48 h, NQO1 specific activity induction. The source says: NAD(P)H:quinone oxidoreductase 1 (NQO1), also called DT diaphorase, is a homodimeric FAD-containing enzyme that catalyzes obligatory NAD(P)H-dependent two-electron reductions of quinones and protects cells against the toxic and neoplastic effects of free radicals and reactive oxygen species arising from one-electron reductions. The transcription of NQO1 is finely regulated by NRF2, and thus NQO1 activity is a good marker for NRF2 activation. On day one, frozen BEAS-2B cells (ATCC) are thawed in a water bath, counted, and re-suspended at a concentration of 250,000 cells/mL. Fifty microliters of cells are plated in 384 well black clear-bottomed plates. Plates are incubated at 37° C., 5% CO2 overnight. On day two, plates are centrifuged and 50 nL of compound or controls are added to the cells. Plates are then incubated at 37° C., 5% CO2 for 48 hours. On day four, medium is aspirated from the plate and crude cell lysates are made by adding 13 uL of 1× Cell Signaling Technologies lysis buffer with 1 Complete, Mini, EDTA-free Protease Inhibitor Tablet (Roche) for each 10 mL of lysis buffer. After lysis plates are incubated for 20 minutes at room temperature. Two microliters of lysate are removed for use in Cell Titer Glo assay (Promega) and MTT cocktail is prepared (Prochaska et. al. 1998) for measurement of NQO1 activity. Fifty microliters of MTT cocktail is added to each well, plate is centrifuged, and analyzed on an Envision plate reader (Perkin Elmer) using Absorbance 570 nm label for 30 minutes. Product formation is measured kinetically and the pEC50 of NQO1 specific activity induction is calculated by plotting the change in absorbance (Delta OD/min) versus the log of compound concentration followed by 3-parameter fitting.

The next test deals with T1, Keap1/NRF2 (Homo sapiens, UniProt Q14145).
T1 construct: Keap1 (321-609) is diluted to 40 nM (2×) in 1× assay buffer
T1 sequence (Q14145 321-609): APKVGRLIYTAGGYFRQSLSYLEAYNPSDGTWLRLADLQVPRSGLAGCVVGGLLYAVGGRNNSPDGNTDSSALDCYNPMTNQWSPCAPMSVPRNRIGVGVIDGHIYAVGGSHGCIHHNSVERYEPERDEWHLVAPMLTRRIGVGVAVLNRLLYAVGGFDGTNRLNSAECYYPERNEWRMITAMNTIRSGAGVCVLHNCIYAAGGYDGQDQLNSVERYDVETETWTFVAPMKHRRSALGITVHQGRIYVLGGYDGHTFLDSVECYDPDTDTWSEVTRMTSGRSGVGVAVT
Put plainly: NRF2-Keap1 FP Assay (Kelch domain (321-609) of Keap1, TAMRA-labeled NRF2 ETGE peptide). The class given is binding. The following applies: Keap1 (321-609) 20 nM, Tamra labeled peptide 8 nM. The source says: One model for the NRF2-Keap1 interaction is through two binding sites in the Neh2 domain on NRF2. The two sites are referred to as the DLG binding motif (latch domain, uM affinity) and the ETGE binding motif (hinge domain, nM affinity). The Keap1 protein consists of an N-terminal region (NTR), a broad complex, tramtrack, and brick a′ brac domain (BTB), an intervening region (IVR), a double glycine repeat domain (DGR or Kelch), and a C-terminal region. The DLG and ETGE motifs of NRF2's Neh2 domain bind to the Kelch domain of Keap1 at different affinities. In the Keap1 Kelch fluorescence polarization (FP) assay, a TAMRA-labeled 16 mer peptide (AFFAQLQLDEETGEFL) containing the ETGE motif of NRF2 and the Kelch domain (321-609) of Keap1 is used. The assay determines if a compound interferes with the binding between Keap1 […] and the TAMRA-labeled peptide. Binding of TAMRA-labeled NRF2 peptide to Keap1 (321-609) results in a high FP signal. If a compound interferes with the binding between the peptide and the protein, it will cause the assay signal to decrease. Thus, assay signal is inversely proportional to binding inhibition.
100 nl of 100× compound dose response curves (serial 3-fold dilutions) in DMSO are stamped using an Echo liquid handling system (Labcyte) into 384-well low volume black assay plates (Greiner, #784076), with DMSO in columns 6 and 18. The top concentration of compound is located in columns 1 and 13. Keap1 (321-609) is diluted to 40 nM (2×) in 1× assay buffer (50 mM Tris, pH 8.0, 100 mM NaCl, 5 mM MgCl2, 1 mM DTT, 2 mM CHAPS, and 0.005% BSA) and 5 ul is added using a Multidrop Combi (Thermo Electron Corporation) equipped with a metal tip dispenser to all wells of the compound plate, except column 18. Column 18 receives only 5 ul of assay buffer. Immediately, 5 uL of 16 nM (2×) of Tamra labeled peptide (AFFAQLQLDEETGEFL, 21st Century Biochemicals) is added to all wells of the plate. The plates are spun at 500 rpm for 1 min, incubated for 1 hr at room temperature, and read on an Analyst GT (Molecular Devices) equipped with excitation (530/25 nm) and emission (580/10 nm) filters designed for Tamra probes. A 561 nm dichroic mirror is also used in the Analyst. The final assay concentrations of Keap1 (321-609) and Tamra labeled peptide are 20 nM and 8 nM, respectively. Fluorescence measurements, represented as mP, are used in the transformation of the data. Compound activity is calculated based on percent inhibition, normalized against controls in the assay (Control 1 contains the Tamra peptide and Keap1 (321-609) together (0% response) and control 2 contains the Tamra peptide alone (100% response)). Data analysis is handled using the software package Abase XE (Surrey, United Kingdom. The % inhibition values are calculated by the equation: 100−(100*((compound response-average control 2)/(average control 1−average control 2))). For calculation of pIC50s, Abase XE uses a four parameter equation.

Another test has as its target T2, NRF2/Keap1 (Homo sapiens, UniProt Q14145).
T2 construct: full length NRF2 protein and full length Keap1 protein (Keap1 exists a dimer) are used
The experiment in a line: NRF2-Keap1 TR-FRET Low Protein Assay (full length NRF2 and full length Keap1). It counts as binding. The settings on record: low protein: 1.25 nM Keap1 FlagHis, 2.5 nM biotin-NRF2 added. The source says: In the NRF2-Keap1 TR-FRET (time-resolved fluorescence resonance energy transfer) low protein assay, full length NRF2 protein and full length Keap1 protein (Keap1 exists a dimer) are used. The assay detects a compound's ability to displace the binding of Keap1 FlagHis with biotinylated Avi-NRF2 protein. Biotin-NRF2 binds to streptavidin-europium (a component of the detection mix) and Keap1 FlagHis is recognized by anti-Flag APC (allophycocyanin) antibody (also a component of the detection mix). If binding occurs between the two proteins, there will be an energy transfer from the Eu+3 (donor) at 615 nm to the APC (acceptor) at 665 nm. A potential NRF2 inhibitor will cause a reduction in the TR-FRET signal by interfering with the binding of Keap1 to NRF2.
Ten nanoliters of 100× compound dose response curves (serial 3-fold dilutions) in DMSO are stamped using an Echo liquid handling system (Labcyte) into 384-well, low volume, black assay plates (Greiner, #784076), with DMSO in columns 6 and 18. An additional 90 nl DMSO is added to each well, to bring the total volume to 100 nl per well. The top concentration of compound is located in columns 1 and 13, with the serial dilutions going across the row. All reagents are diluted in assay buffer (50 mM Tris, pH 8.0, 5 mM MgCl2, 100 mM NaCl, 0.005% BSA, 1 mM DTT, and 2 mM CHAPS. The BSA, DTT, and CHAPS are added to the assay buffer on the day of assay. Using a Multidrop Combi (Thermo Electron Corporation) equipped with a metal tip dispenser, 5 ul of 1.25 nM Keap1 FlagHis protein is added to all wells of the compound plate, with the exception of the wells in column 18. Wells in column 18 receive 5 ul of assay buffer instead. Plates are centrifuged at 500 rpm for 1 minute, covered with a plate lid, and incubated at 37° C. for 2.25 hours. Plates are then removed from the incubator and allowed to cool to RT for 15 minutes. Five microliters of 2.5 nM biotin-NRF2 protein is then added to all wells of the plates and the plates are spun at 500 rpm for 1 minute, followed by incubating at 4° C. for 1.25 hours. The plates are then allowed to warm to RT for 15 minutes, followed by the addition of 10 ul of detection mix (1 nM Streptavidin Eu+ W1024 and 5 ug/ml mouse anti-DYKDDDDK IgG conjugated to SureLight APC antibody; both from Columbia Biosciences) to all wells. Plates are spun at 500 rpm for 1 minute, incubated for 1 hour at RT, and read on an Envision plate reader using a 320 nm excitation filter and 615 nm and 665 nm emission filters. Compound response (% inhibition) and potency (pIC50) are calculated based on the ratio of the two emissions (665 nm/615 nm) and then the transformed data is normalized against controls in the assay (control 1=1% DMSO in the presence of NRF2 and Keap1 protein and control 2=1% DMSO in the presence of only the NRF2 protein). Data analysis is handled using the software package Abase XE (Surrey, United Kingdom). The % inhibition values are calculated from the ratio (transformed) data by the equation: 100−(100*(compound response-average control 2)/(average control 1−average control 2)). For calculation of pIC50s, Abase XE uses a four parameter equation.

What is called EC50 is the midpoint of the concentration-response curve. What is called IC50 is the point on the concentration scale where inhibition reaches its midpoint.

Counter-ions that a name gives are not always drawn. Where only a bound is given, the exact number is not on record here.

T2 sequence (Q14145 whole entry): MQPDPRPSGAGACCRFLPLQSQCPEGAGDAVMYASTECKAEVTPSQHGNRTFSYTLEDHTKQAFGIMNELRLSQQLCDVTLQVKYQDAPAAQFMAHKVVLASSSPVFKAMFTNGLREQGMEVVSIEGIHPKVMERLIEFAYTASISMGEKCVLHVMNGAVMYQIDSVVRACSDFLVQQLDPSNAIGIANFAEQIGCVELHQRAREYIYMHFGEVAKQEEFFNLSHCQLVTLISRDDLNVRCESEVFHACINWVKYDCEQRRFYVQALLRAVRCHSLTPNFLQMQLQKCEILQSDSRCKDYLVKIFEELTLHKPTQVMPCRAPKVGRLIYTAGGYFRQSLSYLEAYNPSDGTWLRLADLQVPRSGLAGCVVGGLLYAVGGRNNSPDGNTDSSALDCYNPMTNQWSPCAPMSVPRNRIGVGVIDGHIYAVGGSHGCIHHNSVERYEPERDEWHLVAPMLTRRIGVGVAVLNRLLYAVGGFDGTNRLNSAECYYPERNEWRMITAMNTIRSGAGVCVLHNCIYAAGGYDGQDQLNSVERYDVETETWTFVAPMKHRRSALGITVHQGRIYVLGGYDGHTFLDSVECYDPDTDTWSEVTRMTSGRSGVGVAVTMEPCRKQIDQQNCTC

In turn, `Cn1cc([C@@H]2C[C@H]2c2c(C(=O)O)cnn2-c2cccc(C3CCCN(C(=O)OC(C)(C)C)C3)c2)nn1` (stereo partly drawn) [Example 26, 1-(3-(1-(tert-butoxycarbonyl)piperidin-3-yl)phenyl)-5-((1R,2R)-2-(1-methyl-1H-1,2,3-triazol-4-yl)cyclopropyl)-1H-pyrazole-4-carboxylic Acid] came in with an EC50 in test [1] of 1000 to 10000 nM. The IC50 on Keap1/NRF2 and against NRF2/Keap1 was 10 to 100 nM throughout.

`CC(C)(C)OC(=O)N1CCCC(c2cccc(-n3ncc(C(=O)O)c3C3CC3)c2)C1` (stereo not drawn) [Example 27, 1-(3-(1-(tert-Butoxycarbonyl)piperidin-3-yl)phenyl)-5-cyclopropyl-1H-pyrazole-4-carboxylic Acid] had an EC50 in test [1] of 1000 to 10000 nM. Moreover, the IC50 on Keap1/NRF2 was > 10000 nM; at NRF2/Keap1, 1000 to 10000 nM.

Take `O=C(O)c1cnn(-c2cccc(C3CCCN(CC4CCCCC4)C3)c2)c1C1CC1` (stereo not drawn) [Example 28, 1-(3-(1-(cyclohexylmethyl)piperidin-3-yl)phenyl)-5-cyclopropyl-1H-pyrazole-4-carboxylic Acid, Hydrochloride]: in test [1], the EC50 lay in the range of 1000 to 10000 nM. Besides, the IC50 is > 10000 nM against Keap1/NRF2 and 1000 to 10000 nM on NRF2/Keap1.

`Cn1cc([C@@H]2C[C@H]2c2c(C(=O)O)cnn2-c2cccc(C3CCCN(CCc4ccccc4)C3)c2)nn1` (stereo partly drawn) [Example 29, 5-((1R,2R)-2-(1-Methyl-1H-1,2,3-triazol-4-yl)cyclopropyl)-1-(3-(1-phenethylpiperidin-3-yl)phenyl)-1H-pyrazole-4-carboxylic Acid, Hydrochloride] returned an EC50 in test [1] of 1000 to 10000 nM. For the same compound, the IC50 is 100 to 1000 nM against Keap1/NRF2 and 10 to 100 nM against NRF2/Keap1.

For the compound `Cn1cc([C@@H]2C[C@H]2c2c(C(=O)O)cnn2-c2cccc(C3CCCN(S(=O)(=O)c4ccccc4)C3)c2)nn1` (stereo partly drawn) [Example 30, 5-((1R,2R)-2-(1-methyl-1H-1,2,3-triazol-4-yl)cyclopropyl)-1-(3-(1-(phenylsulfonyl)piperidin-3-yl)phenyl)-1H-pyrazole-4-carboxylic Acid], the 50% effective concentration (EC50) in test [1] was 1000 to 10000 nM. The IC50 against Keap1/NRF2 was 10 to 100 nM; against NRF2/Keap1, < 10 nM.

Turning to `Cn1cc([C@@H]2C[C@H]2c2c(C(=O)O)cnn2-c2cccc(C3CCCN(C(=O)CC4CCCCC4)C3)c2)nn1` (stereo partly drawn) [Example 31, 1-(3-(1-(2-cyclohexylacetyl)piperidin-3-yl)phenyl)-5-((1R,2R)-2-(1-methyl-1H-1,2,3-triazol-4-yl)cyclopropyl)-1H-pyrazole-4-carboxylic Acid], in test [1], the EC50 was 100 to 1000 nM. Also, the figures for the IC50 against Keap1/NRF2 and against NRF2/Keap1 were 100 to 1000 nM and 10 to 100 nM, respectively.

In the case of `Cn1cc([C@@H]2C[C@H]2c2c(C(=O)O)cnn2-c2cccc(C3CCCN(C(=O)C(C)(C)C)C3)c2)nn1` (stereo partly drawn) [Example 32, 5-((1R,2R)-2-(1-methyl-1H-1,2,3-triazol-4-yl)cyclopropyl)-1-(3-(1-pivaloylpiperidin-3-yl)phenyl)-1H-pyrazole-4-carboxylic Acid], the EC50 in test [1] lay within 100 to 1000 nM. The IC50 against Keap1/NRF2 and against NRF2/Keap1 was 10 to 100 nM each time.

As to `Cn1cc([C@@H]2C[C@H]2c2c(C(=O)O)cnn2-c2cccc(C3CCCN(C(=O)c4ccccc4)C3)c2)nn1` (stereo partly drawn) [Example 33, 1-(3-(1-benzoylpiperidin-3-yl)phenyl)-5-((1R,2R)-2-(1-methyl-1H-1,2,3-triazol-4-yl)cyclopropyl)-1H-pyrazole-4-carboxylic Acid], in test [1], the EC50 fell in the range of 1000 to 10000 nM. For the same compound, the IC50 against Keap1/NRF2 lay within 100 to 1000 nM; at NRF2/Keap1, 10 to 100 nM.

`CCC[C@@H]1CCCCN1C(=O)N1CCCC(c2cccc(-n3ncc(C(=O)O)c3[C@@H]3C[C@H]3c3cn(C)nn3)c2)C1` (stereo partly drawn) [Example 34, 5-((1R,2R)-2-(1-Methyl-1H-1,2,3-triazol-4-yl)cyclopropyl)-1-(3-(1-((R)-2-propylpiperidine-1-carbonyl)piperidin-3-yl)phenyl)-1H-pyrazole-4-carboxylic Acid] showed a 50% effective concentration (EC50) in test [1] of 1000 to 10000 nM. For the same compound, the values for the IC50 against Keap1/NRF2 and against NRF2/Keap1 were 100 to 1000 nM and 10 to 100 nM, respectively.
